From US10806740B2, “Natural combination hormone replacement formulations and therapies” (TherapeuticsMD, Inc., priority 2012, dated 2020)
Each block holds one compound with its values, some of them ahead of it.

Tests used:
Format in all cases: physicochemical
[1] = Estradiol solutions after addition of 7% water
Description: In addition to determining physical stability of the estradiol solutions over time, it is necessary to determine if the fill material will be stable during the encapsulation process. One way to test these preparations is with the addition of water to the fill mass. […].
All CAPMUL® PG8 containing formulations turned hazy on the addition of water.

[2] = Progesterone solubility in solvents
Description: . Thus, MIGLYOL® may be used in embodiments comprising a suspension of progesterone, though MIGLYOL®, standing alone, is not desirable for use in embodiments having fully solubilized progesterone and/or estradiol.

[3] = Particle size analysis with Beckman Device (laser diffraction); conditions: Fraunhofer optical model
Method: Particle size may be determined in any suitable manner. For example, a Beckman Coulter LS 13 320 Laser Diffraction Particle Size Analyzer (the “Beckman Device”) may be used to determine particle size. As described above, particle size may be represented by various metrics, for example, through an X50 particle size, and/or X90 particle size, or similar descriptions of particle size.
For the purposes of this Example, a particle size analysis is conducted by using the Beckman Device. A sample API comprising micronized progesterone in accordance with various embodiments is provided for analysis.
Approximately 0.01 g of a sample API in accordance with various embodiments was combined with Coulter 1B and 10 mL of deionized water. Sonication was performed for 15 seconds. The Beckman Device, equipped with a ULM, performed analysis for 90 seconds. The Beckman Device was configured to use the Fraunhofer optical model. […] The Beckman Device also yielded that the mean particle size is 4.975 μm, the median particle size is 4.279 μm, the mode particle size is 6.453 μm, and the standard deviation is 3.956 μm.
A formulation sample having approximately 200 mg of micronized progesterone and 2 mg of estradiol was dispersed with oil. The Beckman Device, equipped with a MLM, performed analysis for 60 seconds. The Beckman Device was configured to use the Fraunhofer optical model.

Results after addition of 7% water ([1]; estradiol 6 mg/g in CAPMUL MCM): without recrystallization | Results after addition of 7% water ([1]; estradiol 6 mg/g in MIGLYOL 812:CAPMUL PG8 (75:25)): Precipitated | Results after addition of 7% water ([1]; estradiol 6 mg/g in Polyethylene Glycol 400): without recrystallization | Results after addition of 7% water ([1]; estradiol 12 mg/g in CAPMUL MCM): Clear | Results after addition of 7% water ([1]; estradiol 12 mg/g in MIGLYOL 812:CAPMUL PG8 (50:50)): Hazy | Results after addition of 7% water ([1]; estradiol 12 mg/g in Polyethylene Glycol 400): clear | Results after addition of 7% water ([1]; estradiol 12 mg/g in TRANSCUTOL:MIGLYOL 812:CAPMUL PG8 (5:47:47)): Hazy | Results after addition of 7% water ([1]; estradiol 12 mg/g in TRANSCUTOL:MIGLYOL 812:CAPMUL PG8 (5:65:28)): Hazy
SMILES: C[C@]12CC[C@@H]3c4ccc(O)cc4CC[C@H]3[C@@H]1CC[C@@H]2O [Estradiol, (17β)-estra-1,3,5(10)-triene-3,17-diol]

Progesterone Solubility ([2]; in CAPMUL MCM): 73.4 mg/g | Progesterone Solubility ([2]; in CAPMUL MCM:GELUCIRE 44/14 (6:3)): 57.4 mg/g | Progesterone Solubility ([2]; in CAPMUL MCM:GELUCIRE 44/14 (6:4)): 57.4 mg/g | Progesterone Solubility ([2]; in CAPMUL MCM:GELUCIRE 44/14 (7:3)): 70.5 mg/g | Progesterone Solubility ([2]; in CAPMUL MCM:GELUCIRE 44/14 (9:1)): 86.4 mg/g | Progesterone Solubility ([2]; in CAPMUL MCM:GELUCIRE 44/14 (9:1), listed as progesterone): approximately 86 mg/g | Progesterone Solubility ([2]; in CAPMUL MCM, listed as progesterone): ~73 mg/g | Progesterone Solubility ([2]; in CAPMUL PG8): 95 mg/g | Progesterone Solubility ([2]; in MIGLYOL 812): 27.8 mg/g | X25 particle size [3]: 1.590 μm | X50 particle size [3]: 4.279 μm | X75 particle size [3]: 7.442 μm | mean particle size [3]: 4.975 μm | median particle size [3]: 4.279 μm | mode particle size [3]: 6.453 μm
SMILES: CC(=O)[C@H]1CC[C@H]2[C@@H]3CCC4=CC(=O)CC[C@]4(C)[C@H]3CC[C@]12C [Progesterone, pregn-4-ene-3,20-dione]
